Reference: patent US7601739B2, “Compounds having antiestrogenic and tissue selective estrogenic properties, and compounds with anti-androgenic properties for treatment of prostate cancer and androgen receptor dependent diseases” (Virgina Commonwealth University, priority 2006, dated 2009)

Biological target: T1, mutant hART877A (Homo sapiens, UniProt P10275, T878A)
T1 construct: LNCaP cells expressing a novel mutant hART877A; endogenous in cells; host or cells: LNCaP prostate cancer cells (transfected only with reporter plasmids, as far as printed)
T1 sequence (P10275 1-920 T878A): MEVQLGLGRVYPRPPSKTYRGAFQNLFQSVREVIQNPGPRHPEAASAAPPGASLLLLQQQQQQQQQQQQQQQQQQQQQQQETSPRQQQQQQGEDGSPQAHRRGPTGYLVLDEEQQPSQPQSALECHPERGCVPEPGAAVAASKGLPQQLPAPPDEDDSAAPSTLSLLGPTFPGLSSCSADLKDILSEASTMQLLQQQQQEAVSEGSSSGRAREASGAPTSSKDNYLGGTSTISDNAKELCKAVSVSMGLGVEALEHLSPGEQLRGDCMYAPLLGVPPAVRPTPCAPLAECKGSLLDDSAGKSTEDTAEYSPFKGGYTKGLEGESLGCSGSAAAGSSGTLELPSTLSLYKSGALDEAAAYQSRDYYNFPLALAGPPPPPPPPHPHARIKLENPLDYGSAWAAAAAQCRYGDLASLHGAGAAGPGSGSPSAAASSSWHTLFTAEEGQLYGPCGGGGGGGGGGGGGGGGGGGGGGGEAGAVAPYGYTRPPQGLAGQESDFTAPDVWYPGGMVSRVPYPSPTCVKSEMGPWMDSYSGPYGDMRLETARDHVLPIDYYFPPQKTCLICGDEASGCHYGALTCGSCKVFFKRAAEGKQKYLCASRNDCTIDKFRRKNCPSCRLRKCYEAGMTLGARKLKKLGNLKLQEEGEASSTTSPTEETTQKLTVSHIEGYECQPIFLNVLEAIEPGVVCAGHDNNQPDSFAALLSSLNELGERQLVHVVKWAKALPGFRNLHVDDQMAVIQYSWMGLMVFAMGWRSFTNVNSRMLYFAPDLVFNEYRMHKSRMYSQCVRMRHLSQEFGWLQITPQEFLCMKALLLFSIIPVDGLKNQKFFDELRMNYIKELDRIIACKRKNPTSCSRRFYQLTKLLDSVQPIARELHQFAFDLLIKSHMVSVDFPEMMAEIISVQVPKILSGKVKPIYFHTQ
Experiment: Transient transfection reporter assay in LNCaP cells expressing mutant hAR
Assay type: cell-based
Description: To determine the agonist and antagonist activity of these compounds, the transient transfection reporter assay in HepG2 cells were employed. […] Apart from the testing against wild type hAR, because hAR mutation is one of the important factors for antiandrogen-resistant symptoms discovered in advance prostate cancer patients, we also employed transient transfection reporter assay in the prostate cancer cell line, LNCaP cells expressing a novel mutant hART877A.

C[C@]1(O)CC[C@H]2[C@@H]3CCC4=CC(=O)CCC4=C3C=C[C@@]21C [Compound R1881, R1881]
agonistic effects against mutant hART877A: significant agonism activity
